Reference: patent US10188622B2, “Use of a composition comprising fish oil and juice for the treatment and/or post treatment of cancer” (Smartfish AS, priority 2013, dated 2019)
Several values for one entry are separate records, joined by “and”; a condition that tells them apart may be missing. Equal entries are not always repeated.

Test system: MP2 cells co-cultured with NK (IL-2) cells
Test: Enzymatic caspase-3 assay (CaspACE-3) in co-culture of pancreatic cancer cells and NK cells
Assay type: cell-based, human
Conditions: 48 hours; for Casp-3, X1 / Casp-3, X2 / Casp-3, X3 / Casp-3, Mean: MP2 cells + NK (IL-2); for Casp-3, X1: experiment X1; for Casp-3, X1 / Casp-3, X2 / Casp-3, X3: RvD1 and DHA 50 nM; for Casp-3, X2: experiment X2; for Casp-3, X3: experiment X3; for Casp-3, Mean: mean of X1-X3; for caspase-3 expression (mean ± 2× standard error): PDAC (MP2) cells co-cultured with NK cells, as stated in text
Protocol: Mia Paca2 (MP2) and L3.6 cells from pancreatic ductal adenocarcinoma so (PDAC) were obtained from T. Donahue, UCLA Surgery and were propagated in Dulbecco's Modified Eagle's Medium (DME) with 10% foetal calf serum. 10,000 cells were plated in each well of 24-well plates and were grown at 37° C. and 24 h to near confluence before testing.
These were isolated from human blood by NK cell isolation kit (Stem cell technologies, Vancouver, Canada). NK cells were activated by treatment with IL-2 or IL2/CD16 as described in Tseng, H. C. et al. “Increased lysis of stem cells but not their differentiated cells by natural killer cells; de-differentiation or reprogramming activates NK cells.” PLOS One 5(7): e11590, 2010.
Composition of the invention (Nutrifriend 2000) containing DHA (1000 mg/200 ml) and EPA (1000 mg/200 ml) was purchased by the company Smartfish AS, Oslo, For use in cell culture, diluted 1:2 with fetal calf serum, sonicated for 30 sec and then diluted 1:100 in DMEM with 10% fetal calf serum.
NK cells were added to MP2 or L3.6 cells at a ratio of 5 NK cells per 1 MP2 cell. The co-cultures were treated with Smartfish. Addition of DHA (50 nM) or resolvin D1 (RvD1 from Cayman Chemical company, Ann Arbor, Mich., 50 nM) were tested as controls. The co-cultures is were grown for 48 hours, harvested and tested by the caspase-3 assay.
The enzymatic caspase-3 assay was performed by the CaspACE-3 assay G-7351 (Promega Corporation, Madison, Wis.) according to the manufacturer's instructions.
The data were analyzed by comparing the range of means (mean+/−2× standard error of mean). When indicated the exact value was calculated by the Fisher exact test.

Row | Compound | Casp-3, X1 | Casp-3, X2 | Casp-3, X3 | Casp-3, Mean | caspase-3 expression (mean ± 2× standard error) | caspase-3 expression (mean ± 2× standard error) (listed as resolvinD1)
1 | CC/C=C\C/C=C\C/C=C\C/C=C\C/C=C\C/C=C\CCC(=O)O [DHA, docosahexanoic acid] | 5.7 µM | 6.6 µM | 6 µM | 6.1 µM | 6.1 µM and 6.1 ± 0.48 µM | 
2 | CC/C=C\C[C@H](O)/C=C/C=C\C=C\C=C\[C@@H](O)[C@@H](O)C/C=C\CCC(=O)O [RvD1, resolvin D1] | 6 µM | 6.3 µM | 6.6 µM | 6.3 µM | 6.3 ± 0.31 µM | 6.3 ± 0.31 µM
